Values of other authors, collected in patent US7795220B2, “Conformationally constrained parathyroid hormones with alpha-helix stabilizers” (The General Hospital Corporation, priority 2003, dated 2010).

Target: T1, P1R (Homo sapiens, UniProt Q03431)
T1 sequence (Q03431 27-593): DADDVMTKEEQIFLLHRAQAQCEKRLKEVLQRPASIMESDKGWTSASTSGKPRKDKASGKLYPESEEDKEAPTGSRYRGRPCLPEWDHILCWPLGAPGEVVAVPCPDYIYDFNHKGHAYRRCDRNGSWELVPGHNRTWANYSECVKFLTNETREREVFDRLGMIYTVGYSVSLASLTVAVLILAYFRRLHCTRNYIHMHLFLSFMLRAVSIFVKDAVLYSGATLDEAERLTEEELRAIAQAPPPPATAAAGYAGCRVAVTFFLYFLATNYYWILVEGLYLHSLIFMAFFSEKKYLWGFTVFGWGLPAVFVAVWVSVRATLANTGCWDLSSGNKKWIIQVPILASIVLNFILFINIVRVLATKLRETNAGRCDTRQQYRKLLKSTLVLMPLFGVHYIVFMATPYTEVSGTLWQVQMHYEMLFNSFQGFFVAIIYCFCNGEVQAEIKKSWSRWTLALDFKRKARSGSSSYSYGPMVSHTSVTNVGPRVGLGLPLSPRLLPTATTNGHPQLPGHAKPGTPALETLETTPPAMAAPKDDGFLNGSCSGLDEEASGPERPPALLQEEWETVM
Conditions: literature; read-out: cAMP-signaling potency (EC50); cited from earlier work

PTH(1-34)
EC50: ~2 nM
